# Read-outs that look alike come from different tables or passages of the source.
# Key:
# Assay in all cases: Ras GTP binding domain inhibition assay (Cy3-GTP/Cy5-GTP competition)
# KRas G12C mutant = tested on: KRas G12C mutant; parameters: species or system human; settings: 20 μM
# Experimental: (§1) The following method was developed as specific assay for the following proteins: KRas wild type, KRas Q61H mutant, KRas G12C mutant, KRas G12D mutant, HRas wild type, Rac-1, and Rho-A.
# (§2) • 25 mM Tris-HCl, pH 7.4 • 27 mM KCl • 137 mM NaCl • 1 mM MgCl2 • 1 mM DTT
# (§3) • 50 mM Tris-HCl, pH 7.0 • 1 mM MgCl2 • 1 mM DTT
# (§4) The small GTPases proteins: KRas wild type. KRas Q61H mutant, KRas G12C mutant, KRas G12D mutants, HRas wild type, Rac-1, and Rho-A were expressed as His-tagged proteins. In addition, the Guanosine nucleotide Exchange Factor (GEF) Sos protein (residues 556-1049) was expressed as a His-tagged protein. In cells, the guanine nucleotide exchange factor Sos protein promotes activation of Ras proteins by stimulating an exchange of GDP for GTP. The inclusion of Sos to the Ras GTP binding domain inhibition assay may be considered as an alternative representation of physiological cellular conditions for evaluating the inhibitory activity of some of the tested small molecules.
# (§5) For the assay, all purified small GTPases proteins were diluted in Buffer-I or Buffer-II to a final concentration of 10-30 μg/mL. 200 μL of each diluted protein was added to a nickel-coated 96-well plate and incubated overnight at 4° C. Then the protein solution was discarded and 200 μL of Buffer-I or Buffer-II was added to each well in the presence of 1% DMSO. Compounds to be tested were added to the protein-coated wells at final concentration of 20 μM, and incubated for 3 hours at room temperature with and without […] of Sos added to the final hour of the incubation. When performing IC50 measurements a serial dilution of all tested concentrations was added. Then Cy3-GTP or Cy5-GTP was added to each well to a final concentration of 100 nM. The labeled GTP was incubated for 45 minutes at room temperature. Following GTP incubation, wells were washed 3× in Buffer-I or Buffer-II and 200 μL of Buffer-I or Buffer-II was added to each well. Following washes, the amount of bound labeled-GTP was measured using a SpectraMax M3 (Molecular Devices).
# KRas Q61H mutant = tested on: KRas Q61H mutant; parameters: species or system human; settings: 20 μM
# Experimental: as §1, §2, §3, §4, §5
# KRas wild type = tested on: KRas wild type; parameters: species or system human; settings: 20 μM; for KRas wild type: % inh.: without SOS; for KRas wild type % inh.: without SOS (Table 7A)
# Experimental: as §1, §2, §3, §4, §5
# KRas G12D mutant = molecular target: T1, KRas G12D mutant (Homo sapiens, UniProt P01116, G12D); settings: 20 μM
# T1 construct: fused on or other part: His tag, used for capture on nickel-coated plates
# Experimental: as §1, §2, §3, §4, §5
# [1] = with SOS, read-out: KRas G-12D mutant + SOS: % inh.
# [2] = without SOS, read-out: KRas G12D mutant: % inh.
# [3] = with SOS (Table 7A), read-out: KRas G12D mutant + SOS: % inh.
# [4] = without SOS (Table 7A), read-out: KRas G12D mutant: % inh.
Compound,KRas G12C mutant + SOS: % inh. (KRas G12C mutant; with SOS),KRas G12C mutant: % inh. (KRas G12C mutant; without SOS),KRas Q61H mutant + SOS: % inh. (KRas Q61H mutant; with SOS),KRas Q61H mutant: % inh. (KRas Q61H mutant; without SOS),KRas wild type + SOS: % inh. (KRas wild type; with SOS),KRas wild type: % inh. (KRas wild type),inhibition at 20 µM (KRas G12D mutant; [1]),inhibition at 20 µM (KRas G12D mutant; [2]),KRas G12C mutant + SOS: % inh. (KRas G12C mutant; with SOS (Table 7A)),KRas G12C mutant: % inh. (KRas G12C mutant; without SOS (Table 7A)),KRas Q61H mutant + SOS: % inh. (KRas Q61H mutant; with SOS (Table 7A)),KRas Q61H mutant: % inh. (KRas Q61H mutant; without SOS (Table 7A)),KRas wild type + SOS: % inh. (KRas wild type; with SOS (Table 7A)),KRas wild type % inh. (KRas wild type),inhibition at 20 µM (KRas G12D mutant; [3]),inhibition at 20 µM (KRas G12D mutant; [4])
COC1CCN(c2nc(-c3nccn3C)nc3sc(-c4ccc(N)nc4C)c(-c4ccccc4)c23)C1.Cl (stereo not shown),A (1-25% inhibition),A (1-25% inhibition),A (1-25% inhibition),A (1-25% inhibition),A (1-25% inhibition),A (1-25% inhibition),1 to 25%,1 to 25%,–,–,–,–,–,–,–,–
COCC(C)Nc1nc(-c2nccn2C)nc2sc(-c3ccccc3Cl)c(-c3cscn3)c12 (stereo not shown) [drawing 854],D (76-100% inhibition),C (51-75% inhibition),D (76-100% inhibition),C (51-75% inhibition),D (76-100% inhibition),B (26-50% inhibition),51 to 75%,51 to 75%,–,–,–,–,–,–,–,–
COC1CCC(Nc2nc(-c3nccn3C)nc3sc(-c4cccc(O)c4F)c(-c4ccccc4)c23)C1 (stereo not shown) [drawing 885],–,–,–,–,–,–,–,–,C (51-75% inhibition),B (26-50% inhibition),C (51-75% inhibition),B (26-50% inhibition),C (51-75% inhibition),B (26-50% inhibition),51 to 75%,26 to 50%
COc1ccc(Oc2nc(-c3ccccn3)nc(O)c2OC)cc1 [drawing 815],C (51-75% inhibition),D (76-100% inhibition),C (51-75% inhibition),D (76-100% inhibition),B (26-50% inhibition),D (76-100% inhibition),26 to 50%,76 to 100%,–,–,–,–,–,–,–,–
COCCCN(C)c1nc(-c2nccn2C)nc2sc(-c3ccn(C)n3)c(-c3ccccc3)c12 [drawing 865],B (26-50% inhibition),A (1-25% inhibition),B (26-50% inhibition),A (1-25% inhibition),B (26-50% inhibition),A (1-25% inhibition),26 to 50%,51 to 75%,–,–,–,–,–,–,–,–
COc1ccc(-c2sc3nc(-c4nccn4C)nc(N4CCC(OC)C4)c3c2-c2ccccc2)cn1.Cl (stereo not shown),D (76-100% inhibition),0 (0% inhibition),D (76-100% inhibition),B (26-50% inhibition),D (76-100% inhibition),A (1-25% inhibition),51 to 75%,26 to 50%,–,–,–,–,–,–,–,–
COc1c(O)nc(-c2ccccn2)nc1Oc1cccnc1 [drawing 802],C (51-75% inhibition),C (51-75% inhibition),C (51-75% inhibition),D (76-100% inhibition),B (26-50% inhibition),D (76-100% inhibition),51 to 75%,51 to 75%,–,–,–,–,–,–,–,–
COCCCNc1nc(-c2nccn2C)nc2sc(-c3ccn(C)n3)c(-c3ccccc3)c12 [drawing 866],B (26-50% inhibition),A (1-25% inhibition),B (26-50% inhibition),B (26-50% inhibition),C (51-75% inhibition),C (51-75% inhibition),26 to 50%,1 to 25%,–,–,–,–,–,–,–,–

# Results, then the molecule that gave them:
KRas G12C mutant + SOS: % inh. (KRas G12C mutant; with SOS),KRas G12C mutant: % inh. (KRas G12C mutant; without SOS),KRas Q61H mutant + SOS: % inh. (KRas Q61H mutant; with SOS),KRas Q61H mutant: % inh. (KRas Q61H mutant; without SOS),KRas wild type + SOS: % inh. (KRas wild type; with SOS),KRas wild type: % inh. (KRas wild type),inhibition at 20 µM (KRas G12D mutant; [1]),inhibition at 20 µM (KRas G12D mutant; [2]),KRas G12C mutant + SOS: % inh. (KRas G12C mutant; with SOS (Table 7A)),KRas G12C mutant: % inh. (KRas G12C mutant; without SOS (Table 7A)),KRas Q61H mutant + SOS: % inh. (KRas Q61H mutant; with SOS (Table 7A)),KRas Q61H mutant: % inh. (KRas Q61H mutant; without SOS (Table 7A)),KRas wild type + SOS: % inh. (KRas wild type; with SOS (Table 7A)),KRas wild type % inh. (KRas wild type),inhibition at 20 µM (KRas G12D mutant; [3]),inhibition at 20 µM (KRas G12D mutant; [4]),Compound
–,–,–,–,–,–,–,–,C (51-75% inhibition),C (51-75% inhibition),C (51-75% inhibition),D (76-100% inhibition),C (51-75% inhibition),C (51-75% inhibition),51 to 75%,51 to 75%,COCCn1ccnc1-c1nc(O)c2scc(-c3ccc(OCC(C)C)nc3)c2n1 [drawing 898]
B (26-50% inhibition),C (51-75% inhibition),B (26-50% inhibition),D (76-100% inhibition),A (1-25% inhibition),D (76-100% inhibition),26 to 50%,51 to 75%,–,–,–,–,–,–,–,–,O=C(NC1CCC1)c1nc(-c2ccccn2)nc(O)c1O [drawing 809]
–,–,–,–,–,–,–,–,D (76-100% inhibition),D (76-100% inhibition),D (76-100% inhibition),D (76-100% inhibition),C (51-75% inhibition),C (51-75% inhibition),51 to 75%,51 to 75%,CO[C@H]1CC[C@@H](Nc2nc(-c3nccn3C)nc3sc(C(=O)N4CCCC4)c(-c4ccccc4)c23)C1 [drawing 926]
B (26-50% inhibition),D (76-100% inhibition),B (26-50% inhibition),C (51-75% inhibition),A (1-25% inhibition),D (76-100% inhibition),1 to 25%,51 to 75%,–,–,–,–,–,–,–,–,CC(C)CNC(=O)c1nc(-c2ccccn2)nc(O)c1O [drawing 811]
–,–,–,–,–,–,–,–,C (51-75% inhibition),C (51-75% inhibition),C (51-75% inhibition),C (51-75% inhibition),C (51-75% inhibition),C (51-75% inhibition),51 to 75%,51 to 75%,CO[C@H]1C[C@@H](Nc2nc(-c3nccn3C)nc3sc(-c4ccn(C)n4)c(C)c23)C1 [drawing 914]
C (51-75% inhibition),B (26-50% inhibition),C (51-75% inhibition),D (76-100% inhibition),B (26-50% inhibition),D (76-100% inhibition),51 to 75%,51 to 75%,–,–,–,–,–,–,–,–,O=C(NCc1ccccc1)c1nc(-c2ccccn2)nc(O)c1O [drawing 821]
A (1-25% inhibition),A (1-25% inhibition),A (1-25% inhibition),A (1-25% inhibition),A (1-25% inhibition),A (1-25% inhibition),1 to 25%,1 to 25%,–,–,–,–,–,–,–,–,COc1cccc(-c2csc3c(O)nc(-c4nccn4C)nc23)c1Cl [drawing 878]
C (51-75% inhibition),C (51-75% inhibition),C (51-75% inhibition),B (26-50% inhibition),C (51-75% inhibition),C (51-75% inhibition),51 to 75%,51 to 75%,–,–,–,–,–,–,–,–,COC1CCN(c2nc(-c3nccn3C)nc3sc(-c4cnc(C5CC5)o4)c(-c4ccccc4)c23)C1.Cl (stereo not shown)
A (1-25% inhibition),B (26-50% inhibition),B (26-50% inhibition),B (26-50% inhibition),A (1-25% inhibition),C (51-75% inhibition),1 to 25%,26 to 50%,–,–,–,–,–,–,–,–,Cn1ccnc1-c1nc(O)c(O)c(C(=O)N2CCCCC2)n1 [drawing 826]

# From US20250296938A1, “Compounds that Interact with the Ras Superfamily for the Treatment of Cancers, Inflammatory Diseases, Rasopathies, and Fibrotic Disease” (SHY Therapeutics, LLC, priority 2018, published 2025)
